Assay results taken from US5618726A, “Biodegradable azo dyes” (priority 1994, dated 1997).

Key:
Mn(II)-peroxidase = test: Oxidation of dyes by P. chrysosporium Mn(II)-peroxidase; format: biochemical, Phanerochaete chrysosporium; conditions: crude enzyme, conditions specific for Mn(II)-peroxidase
Experimental: (§1) The peroxidase assay was carried out using a composition having a final volume of 1.0 ml. The reaction mixture contained 250 μl of 100 mM HEPES buffer (pH 8), 500 μl of 10 mM 2,4-dichlorophenol, 100 μl of 1 mM aminoantipyrine, 50 μl enzyme preparation and 100 μl 50 mM H2 O2. The reaction was initiated by the addition of hydrogen peroxide at 37° C. One unit of peroxidase activity was expressed as the amount of enzyme required for an increase of one absorbance-unit-per-minute at 510 nm. Assays of manganese peroxidase and of ligninase from P. chrysosporium were carried out as previously described by Paszczynski et al in "Manganese peroxidase of Phanerochaete chrysosporium: Purification," Methods Enzymol. 161:264-270, incorporated herein by reference. […] Biophys., 1986, 44:750-765. Preparation and assay of ligninase and manganese peroxidase from these P. chrysosporium cultures were carried out as previously reported by Paszczynski, et al., Methods Enzymol., 1988, 161:264-270. […] Purification," Methods Enzymol. 161:264-270. […] Cycle time was 10 seconds, with the last measure after three minutes of incubation.

ligninase = test: Oxidation of dyes by P. chrysosporium ligninase (crude preparation); format: biochemical, Phanerochaete chrysosporium; conditions: crude enzyme, conditions specific for ligninase
Experimental: as §1, with “30 seconds” for “10 seconds,”, “15 minutes. […] The reaction conditions were the same as for acid yellow 9. No decolorization” for “three minutes”, “the synthesized dyes by ligninase was detected.” for “incubation.”

[1] = tested on: Phanerochaete chrysosporium; test: Substrate removal / decolorization by P. chrysosporium culture; format: cell-based; conditions: for % Decolorization, P. chrysosporium: 14 days
Experimental: Environ. Microbiol., 1981, 42:290-296), with the addition of 75 mg adenine (6-aminopurine) and 27 mg L-phenylalanine-per-liter. This addition accelerated the growth of the fungus without inhibiting ligninase activity. […] […] Cultures were incubated at 37° C. for 7 to 15 days with shaking (250 rpm). Solid agar media were also employed.

[2] = molecular target: T1, horseradish peroxidase type II (Armoracia rusticana, UniProt P00433); test: Oxidation of azo dyes by horseradish peroxidase preparation; format: biochemical; conditions: pH 8, 37° C., H2O2
T1 sequence (P00433 31-338): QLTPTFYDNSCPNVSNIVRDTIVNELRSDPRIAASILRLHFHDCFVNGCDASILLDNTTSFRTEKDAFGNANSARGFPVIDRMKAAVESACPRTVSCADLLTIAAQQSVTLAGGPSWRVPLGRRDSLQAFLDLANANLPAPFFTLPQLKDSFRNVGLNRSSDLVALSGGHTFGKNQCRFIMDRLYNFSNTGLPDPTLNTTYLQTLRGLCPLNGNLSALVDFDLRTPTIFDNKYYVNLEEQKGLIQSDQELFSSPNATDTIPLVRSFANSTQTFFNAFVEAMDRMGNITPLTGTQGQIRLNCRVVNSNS
Experimental: The reaction was started with the addition of 100 μl of 50 mM H2 O2 and was followed for 1 min at 37° C. Controls were run with no addition of H2 O2 or with the addition of the hemeperoxidase inhibitor KCN (final concentration 25 μM).

[3] = tested on: S. chromofuscus A11 extracellular peroxidase; test: Oxidation of azo dyes by S. chromofuscus A11 crude enzyme preparation; format: biochemical, Streptomyces chromofuscus A11; conditions: pH 8, 37° C., H2O2
Experimental: Environ. Microbiol., 1988, 54:3057-3063. […] Microbiol. Biotechnol., 34:661-667. Incubation took place at 37° C. with shaking at 250 rpm. The culture supernatant was collected after 48 h incubation, and vacuum-filtered through Whatman no. 1 filter paper. The filtrate was concentrated approximately 40- to 50-fold by ultrafiltration through an Amicon ultrafiltration stirred cell (series no. 8000, Amicon Corp.) with a disc PM-10 filter (diameter, 76 mm). Protein in the concentrated filtrate was then precipitated from solution with 80% ammonium sulfate. The precipitate was collected by centrifugation (15 min, 10,000 rpm). The pellet was resuspended in 10 ml of 20 mM HEPES buffer (pH 8) and dialyzed overnight against the same buffer at 4° C. These preparations were then stored in 1-ml aliquots at -20° C. until used. Before using, the preparation was filtered through a NAP-25 Sephadex G-25 disposable column (Pharmacia) in order to separate a yellowish protein fraction from a pink low-molecular-weight fraction. The yellowish fraction was used as the source of enzyme. […] The reaction was started with the addition of 100 μl of 50 mM H2 O2 and was followed for 1 min at 37° C. Controls were run with no addition of H2 O2 or with the addition of the hemeperoxidase inhibitor KCN (final concentration 25 μM).

[4] = beginning concentration 100 ppm
[5] = beginning concentration 150 ppm
[6] = beginning concentration 200 ppm
[7] = beginning concentration 300 ppm

SMILES | Oxidation rate of azo dyes, P. chrysosporium Mn-peroxidase (Mn(II)-peroxidase) | Oxidation rate of azo dyes, P. chrysosporium Ligninase (ligninase) | Concentration of substrate after ten days cultivation with P. chrysosporium [1, 4] | Concentration of substrate after ten days cultivation with P. chrysosporium [1, 5] | Concentration of substrate after ten days cultivation with P. chrysosporium [1, 6] | Concentration of substrate after ten days cultivation with P. chrysosporium [1, 7] | % Decolorization, P. chrysosporium ([1]; initial concn 150 ppm) | % Decolorization, P. chrysosporium ([1]; initial concn 300 ppm) | Oxidation rate of azo dyes, Horseradish peroxidase [2] | Oxidation rate of azo dyes, S. chromofuscus peroxidase [3]
O=S(=O)(O)c1ccc(N=Nc2cc(F)c(O)c(F)c2)cc1 [compound 12] | 0.00 μmoles per minute per ml | 11.61 μmoles per minute per ml | 2.368 ppm | 44.227 ppm | 6.160 ppm | 198.240 ppm | 86% | 93% | 0.17 μmoles per minute per ml | 0.15 μmoles per minute per ml
CN(C)c1ccc(N=Nc2ccc(S(=O)(=O)O)cc2)cc1 [compound 14] | 0.15 μmoles per minute per ml | 0.32 μmoles per minute per ml | 4.411 ppm | 11.843 ppm | 15.529 ppm | 36.800 ppm | 93% | 94% | 0.07 μmoles per minute per ml | 0.10 μmoles per minute per ml
COc1ccc(N=Nc2ccc(S(=O)(=O)O)cc2)cc1OC [compound 17] | 0.72 μmoles per minute per ml | 1.03 μmoles per minute per ml | 29.803 ppm | 58.942 ppm | 93.250 ppm | 136.057 ppm | 79% | 74% | 0.32 μmoles per minute per ml | 0.50 μmoles per minute per ml
CCc1ccc(O)c(N=Nc2ccc(S(=O)(=O)O)cc2)c1 [compound 9] | 0.07 μmoles per minute per ml | 1.27 μmoles per minute per ml | 81.911 ppm | 109.822 ppm | 32.044 ppm | 153.733 ppm | 89% | 86% | 0.20 μmoles per minute per ml | 0.35 μmoles per minute per ml
COc1ccc(N=Nc2ccc(S(=O)(=O)O)cc2)cc1 [compound 16] | 0.00 μmoles per minute per ml | 0.25 μmoles per minute per ml | 67.801 ppm | 92.683 ppm | 179.300 ppm | 219.079 ppm | 61% | 55% | 0.06 μmoles per minute per ml | 0.06 μmoles per minute per ml
Nc1ccc(N=Nc2ccc(S(=O)(=O)O)cc2)cc1 [compound 30] | 0.59 μmoles per minute per ml | 1.58 μmoles per minute per ml |  |  |  |  | 85% | 80% | 0.40 μmoles per minute per ml | 0.00 μmoles per minute per ml
Nc1ccc(N=Nc2ccc(S(=O)(=O)O)cc2)cc1S(=O)(=O)O [compound 18] | 0.09 μmoles per minute per ml | 1.38 μmoles per minute per ml | 8.387 ppm | 20.342 ppm | 40.875 ppm | 77.099 ppm |  |  | 0.12 μmoles per minute per ml | 0.15 μmoles per minute per ml
O=S(=O)(O)c1ccc(N=Nc2c(O)ccc3ccccc23)cc1 [compound 31] | 0.47 μmoles per minute per ml | 1.18 μmoles per minute per ml |  |  |  |  |  |  | 0.52 μmoles per minute per ml | 0.09 μmoles per minute per ml
